# Reference: US20060128662A1, “Novel compounds for treatment of obesity” (Novo Nordisk A/S, priority 2003, published 2006)
# System: FSK-4 cells
# Test: Assay (I): Glucose utilisation in a human epithelia cell line (FSK4 cells), D-(6-3H(N))-glucose
# Assay type: cell-based
# Details: 24 hours incubation, Hill equation, read-out: GlucosFSK4 EC50
# Method: Assay (I): Glucose Utilisation in a Human Epithelia Cell Line (FSK4 cells)
# The ^3H-proton will first be released in the TCA cyclus and transported to the respiratory chain where it will be incorporated into water. The water is thereafter separated from the D-(6-^3H(N))-glucose by evaporation.
# FSK-4 cells obtained from ATCC (Maryland, USA), are cultured in growth medium (McCoy's medium with the following addition 100 units/ml penicillin and streptomycin and 10% FCS (fetal calf serum)) at 37° C. and 5% CO2.
# The cells are then incubated for another 24 hours at 37° C. and 5% CO2.
# The half maximal concentration (EC50) and maximal efficacy (Emax) are calculated using the Hill equation in GraphPad Prism 3.0 (GraphPad software, Inc.). […] From the percentage increase in glucose utilisation the linear slope is calculated using the Michaelis-Menten equation.
row,Structure (SMILES),EC50 [nM]
1,"CC(C)(C)c1cc(/C=C(\C#N)S(=O)(=O)c2ccc(/C=C/c3ccccc3)cc2)cc(C(C)(C)C)c1O [Example 51, 3-(3,5-Di-tert-butyl-4-hydroxy-phenyl)-2-(4-styryl-benzenesulfonyl)-acrylonitrile]",900
2,"CC(C)CO/C=C/c1ccc(S(=O)(=O)/C(C#N)=C/c2cc(C(C)(C)C)c(O)c(C(C)(C)C)c2)cc1 [Example 52, 3-(3,5-Di-tert-butyl-4-hydroxy-phenyl)-2-[4-(2-isobutoxy-vinyl)-benzenesulfonyl]-acrylonitrile]",1000
